Test results from patent EP4772649A1, “SCREENING METHOD FOR ODOR-SUPPRESSING MATERIAL” (Takasago International Corporation, priority 2023, dated 2025).
Entries after “also recorded” stand apart in the source; their conditions may differ.

What was measured:
[1] = tested on: olfactory receptor OR2AG2; assay: Antagonist screening: suppression of OR2AG2 response by luciferase reporter gene assay (Normalized Response); type: cell-based, human
Procedure: The human olfactory receptor OR2AG2 gene expression vector was cloned, and HEK293T cells expressing the olfactory receptor OR2AG2 gene were used to perform an antagonist screening in which the effect of test substances on suppressing OR2AG2 response is measured by a luciferase reporter gene assay. In the luciferase reporter gene assay, each of approximately 500 test substances was individually mixed with each "dust odor" compound sample, and the Fold Increase value obtained in each test with the test substance mixed was calculated as the Normalized Response, assuming that the Fold Increase value obtained in the test without mixing any test substance was 1. The concentrations of the "dust odor" compounds used as samples were set as follows: a) 3-ethyl-2-pentylpyridine, 300 µM; b) 2-methoxy-3-isopropylpyrazine, 500 µM; c) 2-isobutyl-3-methoxypyrazine, 500 µM; and d) 2-sec-butyl-3-methoxypyrazine, 500 µM. […] As examples of antagonists thereby identified for each of the "dust odor" compounds a) to d), a) 2,4-decadienal, b) trans-2-nonenal, c) 2,4-undecadienal, and d) 2,4-decadienal were measured for their concentration-dependent effects in suppressing OR2AG2 response to each sample substance using a luciferase reporter gene assay. The concentrations of the samples were set as follows: a) 3-ethyl-2-pentylpyridine, 300 µM; b) 2-methoxy-3-isopropylpyrazine, 500 µM; c) 2-isobutyl-3-methoxypyrazine, 500 µM; and d) 2-sec-butyl-3-methoxypyrazine, 500 µM. The concentrations of the antagonists for each sample were set at 0 µM, 10 µM, 30 µM, 100 µM, and 300 µM.
As in (2-3) of Example 2, HEK293T cells expressing the olfactory receptor OR2AG2 gene were used to determine the effect of test substances in suppressing OR2AG2 response to an odor solution sample with unknown components containing "dust odor" by antagonist screening using a luciferase reporter gene assay. […] As an example of antagonist, the effect of trans-2-nonenal in suppressing OR2AG2 response to the "dust odor" solution with unknown components was measured by a luciferase reporter gene assay. The final concentration of the sample was 0.1 mass%, and the concentrations of trans-2-nonenal relative to the sample were 0 µM, 1 µM, 2 µM, and 4 µM.

[2] = tested on: olfactory receptor OR2AG1; details: Non Patent Literature 6; cited from earlier work
[3] = tested on: olfactory receptor OR2AG2; assay: Luciferase reporter gene assay of olfactory receptor response (Fold Increase) in HEK293T cells expressing OR2AG2; type: cell-based, human; details: for OR2AG2 response (Fold Increase value): screening of 1,367 odorant substances, 1 µM to 1 mM, Figure 2
Procedure: 0.05 µg of the human olfactory receptor gene expression vector, 0.01 µg of RTP1S vector, 0.01 µg of the firefly luciferase vector pGL4.29 (Promega) containing a cAMP response element promoter, and 0.005 µg of the Renilla luciferase vector pGL4.74 (Promega) containing a thymidine kinase promoter were dissolved in 10 µL of Opti-MEM I (gibco) to prepare a gene solution (for one well). HEK293T cells were seeded at 100 µL per well in a 96-well plate (Biocoat, Corning) at a cell number that would reach confluence after 24 hours. The gene solution was added to each well using lipofection in accordance with the instructions for Lipofectamine 3000 to introduce the gene into the cells, which were then cultured at 37°C in a 5% carbon dioxide atmosphere for 24 hours.
After removing the culture medium, 60 µL of an odorant compound sample prepared in CD293 medium (gibco) (supplemented with 20 µM L-glutamine), at the concentration required for measurement, was added to each well. After stimulation for 3 hours, luciferase activity was measured in accordance with the instructions for the Dual-Luciferase Reporter Assay System (Promega). The response intensity of the olfactory receptor was determined using, as an index, a Fold Increase value obtained by dividing the luciferase activity generated by stimulation with the odorant compound by the luciferase activity generated in a test system free of the odorant compound.
For odorant substances whose response values in the luciferase reporter gene assay were equal to or greater than a predetermined threshold, the primary note from the odor-note information was extracted, and the proportion of each odor note was determined.
To extract the "dust odor" generated when aspartame is combined with certain fruit flavors, as described in Patent Literature 1, which is well-known as a "dust odor" of unknown causative substance, aspartame, trans-2-hexenal, and hexanal were mixed at a 1:1:1 (mass ratio) and gently heated at 60°C for one week, after which the reaction product was extracted with hexane. The present extract was fractionated by medium-pressure HPLC with a silica gel column using hexane and ethyl acetate, then fractionated by medium-pressure HPLC with an ODS column using water and acetonitrile, and further fractionated by high-pressure HPLC with an ODS column using water and acetonitrile, to obtain an odor solution containing "dust odor." This "dust odor" solution with unknown components was added to HEK293T cells expressing the olfactory receptor OR2AG2 gene at final concentrations of 0.05 mass%, 0.1 mass%, and 0.2 mass%, and a luciferase reporter gene assay was performed.

OR2M3 = details: Patent Literature 2; cited from earlier work
OR11A1 = details: Patent Literature 2; cited from earlier work

Structure (SMILES): CCCCCC/C=C/C=O [trans-2-nonenal]
- Normalized Response ([1]; against 0.1 mass% odor solution with unknown components containing "dust odor"): below 1
- Normalized Response ([1]; against 2-methoxy-3-isopropylpyrazine 500 µM, test substance 1 µM to 1 mM): less than 1

Structure (SMILES): CCC(C)c1nccnc1OC (stereo not drawn) [2-sec-butyl-3-methoxypyrazine]
- response of olfactory receptor OR2AG1 [2]: responds
- OR2AG2 response (Fold Increase value) [3]: trigger OR2AG2 response

Structure (SMILES): CC1(O)CC2CCC1(C)C2(C)C (stereo not drawn) [2-methylisoborneol]
- response of olfactory receptor OR2M3 (OR2M3): specifically respond

Structure (SMILES): COc1nccnc1CC(C)C [2-isobutyl-3-methoxypyrazine]
- response of olfactory receptor OR2AG1 [2]: responds
- response of olfactory receptor OR2AG2 (Fold Increase value) ([3]; 1 mM odorant, screening of 396 human olfactory receptors, Figure 1): extremely strong response; also recorded: strong and specific response
- OR2AG2 response (Fold Increase value) [3]: trigger OR2AG2 response

Structure (SMILES): CC1CCCC2(C)CCCCC12O (stereo not drawn) [geosmin]
- response of olfactory receptor OR11A1 (OR11A1): specifically respond

Structure (SMILES): CCCCCC=CC=CC=O [2,4-decadienal]
- Normalized Response ([1]; against 2-sec-butyl-3-methoxypyrazine 500 µM, test substance 1 µM to 1 mM): less than 1
- Normalized Response ([1]; against 3-ethyl-2-pentylpyridine 300 µM, test substance 1 µM to 1 mM): less than 1

Structure (SMILES): CCCCCc1ncccc1CC [3-ethyl-2-pentylpyridine]
- OR2AG2 response (Fold Increase value) [3]: trigger OR2AG2 response

Structure (SMILES): COc1nccnc1C(C)C [2-methoxy-3-isopropylpyrazine]
- response of olfactory receptor OR2AG1 [2]: responds
- OR2AG2 response (Fold Increase value) [3]: trigger OR2AG2 response

Structure (SMILES): CCCCCCC=CC=CC=O [2,4-undecadienal]
- Normalized Response ([1]; against 2-isobutyl-3-methoxypyrazine 500 µM, test substance 1 µM to 1 mM): less than 1
